Entries after “also recorded” stand apart in the source; their conditions may differ.
Assays:
[1] = tested on: IL-1β production by human PBMCs; assay: IL-1β production by human PBMCs stimulated with PRR ligands with or without caspase-1 inhibitor (ELISA); format: cell-based; settings: 24 h stimulation, 50 healthy donors
[2] = tested on: IL-1β production of PBMCs from gout patients; settings: MSU or C16.0 alone; cited from earlier work

Compound	induction of IL-1β production by human PBMCs [1]	release of IL-1β by the single component alone [2]
CC(=O)N[C@H]1C(O)O[C@H](CO)[C@@H](O)[C@@H]1O[C@H](C)C(=O)N[C@@H](C)C(=O)N[C@H](CCC(=O)O)C(N)=O (mixture of isomers) [MDP, Muramyl dipeptide]	strong inducers; also recorded: weak inducer	
CCCCCCCCCCCCCCCC(=O)O [C16.0, Palmitic acid]		neither does
Pam3cys	strong inducers	
Flagellin	weak inducer	

From patent US20160077107A1, “PERSONALISED MEDICINE” (STICHTING KATHOLIEKE UNIVERSITEIT, priority 2013, published 2016)
